Data published in patent publication US11913882B2, “Determination of the supramolecular organization of encapsulated molecules by luminescence lifetime analysis” (SCUOLA NORMALE SUPERIORE, priority 2020, dated 2024).

Assay: Fluorescence lifetime analysis (phasor-FLIM) of DOX organization states and Doxoves®
Format: physicochemical
Excerpt: The procedure was applied to Doxoves® as follows: • 1) Based on previous knowledge, at least three different supramolecular organizations of DOX molecules are supposed to contribute to the overall nature of Doxoves® nanocarriers: crystallized DOX, free DOX, and DOX eventually associated with the nanocarrier surface, i.e. with lipids. These three forms are defined here as standards. • 2) The three standards identified at step 1 are obtained and measured. As a preliminary step, each standard is produced and dissolved in a buffer that is the same as that of the test substance. In the present case, manufacturer's indications were followed to produce the correct buffer composition. In general, substances having an impact on lifetime analysis of the test substance, e.g. Doxoves®, shall be also present in the standard substances. First, the phasor signature of crystalized DOX and free-in-solution DOX are measured: two mono-exponential lifetimes are obtained: 0.2 ns for the crystal and 1 ns for free DOX, respectively. […] Then, by spin-coating simil-Doxoves® nanoparticles on a glass surface. This procedure destroys mechanically the liposomal particles and recovers the liposomal membranes on the glass. […] It is important to note that lifetime measuring conditions, e.g. temperature, pH etc., shall be the same for measures on the test substance and measures on the standard substances. • 5) Doxoves® lifetime data are analysed by the phasor approach. In more detail, the phasor is calculated by using a dedicated routine in the SimFCS software (Laboratory for Fluorescence Dynamics, University of California, Irvine). […] Simple algebraic rules are adopted to extract quantitatively the relative contribution (fractional intensity) of each standard (by a dedicated routine in SimFCS software). • It may still be under question whether there may be more than three organization states, e.g. four defining a trapezoidal shape within the universal circle and circumscribing the location of the test substance lifetime decay within the universal circle. A final control experiment was thus performed to corroborate the hypothesis that only three standard components (and NOT more than three) contribute to the overall organization of encapsulated DOX. In brief, the lifetime of simil-Doxoves® in solution is measured. If only three components contribute to Doxoves® organization, simil-Doxoves® is expected to be a linear combination of just free DOX and DOX associated to nanocarrier lipids, thus lying along the segment that connects these two states.

[1] = within tested nanoparticles, FIG. 4, phasor plot triangle

Structure (SMILES): COc1cccc2c1C(=O)c1c(O)c3c(c(O)c1C2=O)C[C@@](O)(C(=O)CO)C[C@@H]3O[C@H]1C[C@H](N)[C@H](O)[C@H](C)O1 [DOX, doxorubicin]
- fluorescence lifetime of free DOX in solution, mono-exponential (pure standard, free in water/buffer, phasor approach): 1 ns
- fluorescence lifetime of crystalized DOX (purified rod-shaped crystals), mono-exponential (pure standard, excitation 470 nm, emission 500-650 nm, phasor approach): 0.2 ns
- fractional intensity of DOX conjugate with the lipids [1]: 46%
- fractional intensity of DOX organized into nanorod crystals [1]: 36%
- fractional intensity of free DOX [1]: 18%
